Laboratory results published in article PMC2674504, “Foam nest components of the túngara frog: a cocktail of proteins conferring physical and biological resilience” (Proceedings of the Royal Society B: Biological Sciences, 2009).
Where a SMILES comes first, the peptide text is derived from it. The star is where a group is joined. AMC = Cc1cc(=O)oc2cc(N*)ccc12; Cbz = O=C(OCc1ccccc1)*

How the values were obtained:
[1] = molecular target: T1, papain (Carica papaya, UniProt P00784); experiment: fluorogenic proteolysis assay (ex […] nm, em […] nm); type: biochemical; settings: 0.1 M acetate pH 5.0, 10 mM dithiothreitol, 2 mM EDTA, 30 °C; mere turnover
T1 construct: commercial enzyme from papaya latex (Sigma)
T1 sequence (P00784 134-345): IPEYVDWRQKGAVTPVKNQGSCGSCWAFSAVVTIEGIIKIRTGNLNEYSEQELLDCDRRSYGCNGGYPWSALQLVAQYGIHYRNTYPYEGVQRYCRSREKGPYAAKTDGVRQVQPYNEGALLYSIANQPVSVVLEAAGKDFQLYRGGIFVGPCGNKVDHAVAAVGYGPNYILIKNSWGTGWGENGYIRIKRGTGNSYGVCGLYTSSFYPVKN

[2] = molecular target: T2, Rsn-4 (Engystomops pustulosus, UniProt B5DCK4); experiment: haemagglutination inhibition (human erythrocytes); lactose-agarose affinity chromatography eluted with […] lactose; type: binding; settings: 20 mM sugar; 10 mM HEPES, 150 mM NaCl, 2 mM CaCl2; room temperature
T2 construct: dimer or higher order
T2 sequence (B5DCK4 20-193): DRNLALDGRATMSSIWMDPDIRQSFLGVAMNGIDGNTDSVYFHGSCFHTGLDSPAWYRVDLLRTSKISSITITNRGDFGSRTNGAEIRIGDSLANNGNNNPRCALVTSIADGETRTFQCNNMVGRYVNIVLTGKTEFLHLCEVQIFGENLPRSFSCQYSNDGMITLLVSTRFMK

[3] = molecular target: T2, Rsn-4; experiment: haemagglutination inhibition (human erythrocytes); type: cell-based; settings: 20 mM sugar; 10 mM HEPES, 150 mM NaCl, 2 mM CaCl2; room temperature; protein refolded in buffer with 20 mM galactose

Cc1cc(=O)oc2cc(NC(=O)[C@H](CCCNC(=N)N)NC(=O)[C@H](Cc3ccccc3)NC(=O)OCc3ccccc3)ccc12 [Z-Phe-Arg 7-amido-4-methylcoumarin] (Cbz-Phe-Arg-{AMC})
fluorogenic proteolysis assay (ex 370 nm, em 470 nm) [1]: papain) was investigated using fluorogenic or chromogenic substrates, Z-Phe-Arg 7-amido-4-methylcoumarin

OC[C@H]1O[C@@H](O[C@H]2[C@H](O)[C@@H](O)C(O)O[C@@H]2CO)[C@H](O)[C@@H](O)[C@H]1O (stereo partly drawn) [lactose]
haemagglutination inhibition (human erythrocytes); lactose-agarose affinity chro [2]: Rsn-4 could be inhibited with lactose and galactose

OC[C@H]1OC(O)[C@H](O)[C@@H](O)[C@H]1O (stereo partly drawn) [galactose]
haemagglutination inhibition (human erythrocytes) [3]: agglutination by Rsn-4 was unaffected by fucose but completely inhibited by galactose
